How the values were obtained:
[1] = Liver microsome metabolic stability, MLM; format: in vitro ADME; details: MLM (single value or second of two), 1 μM compound, 0.25 mg/mL protein; for Met Stab % (60 mins HLM/MLM): percent remaining at 60 min, 1 mM NADPH; for half-life at 1 µM: mouse, liver microsomes, pH 7.4, read-out: T1/2 in (mins HLM/MLM)
Procedure: Potassium phosphate buffer (Kphos) was prepared by adding 0.647 g potassium phosphate monobasic (KH2PO4) and 3.527 g potassium phosphate dibasic ([…]) to 400 mL of Milli-Q water. pH of the buffer was adjusted to 7.4 and volume was made up to 500 mL.
Microsomes (20 mg/mL) were diluted in KH2PO4 buffer to prepare a concentration of 0.357 mg/mL.
Stock solutions of BRN2 inhibitors were prepared in DMSO at a concentration of 1 mM
A stock solution of 3.33 mM NADPH (3.33×) was prepared by dissolving appropriate amount of NADPH in KH2PO4 buffer.
Total Incubation volume: 100 μL
Compound concentration: 1 μM
Protein Concentration: 0.25 mg/mL
An 1120 μL aliquot of Kphos buffer (50 mM, pH 7.4) containing liver microsomes (0.357 mg/mL) were added to individual 2 mL tubes (final concentration 0.25 mg/mL). Test compounds (1 mM) and positive controls were directly spiked into respective tubes to prepare a concentration of 1.428 μM (final concentration 1 μM). From the above mix, 70 μL was added to individual wells of 96 well reaction plates and pre-incubated in a 37° C. water bath for 5 min. All the reactions were initiated by adding 30 μL of 3.33 mM NADPH (final concentration 1 mM). Reactions without NADPH and buffer controls (minus NADPH) at 0 min and 60 min were also incubated to rule out non-NADPH metabolism or chemical instability in the incubation buffer. All reactions were terminated using 100 μL of ice-cold acetonitrile containing internal standard at 0, 5, 15, 30 and 60 min. The plates were centrifuged at 4000 RPM for 15 min and 100 μL aliquots were submitted for analysis by LC-MS/MS.
Samples were monitored for parent compounds disappearance in MRM mode using LC-MS/MS.
The percent remaining of test compounds and positive control in each sample was determined by considering peak area ratio in the 0 minute sample as 100%. The Half-life of compounds in microsomes is calculated by formula:
Half-life (t½) (min)=0.693/k, where k is gradient of line determined from plot of peak area ratio (compound peak area/internal standard peak area) against time.
In vitro intrinsic clearance (CL'int) (units in mL/min/kg) was calculated using the formula.
[formula] • For liver microsomes, scaling factor used was 45 mg microsomal protein per gm liver. • Indicates liver weight (gm) which varies species wise. For mice the liver weights are 90 gm.
Where data is not available “na” is inserted.

[2] = molecular target: T1, BRN2 (Homo sapiens, UniProt P20265); test: cell-based; details: negative = activation; for inhibition at 10 µM: read-out: % BRN2 Inhibition (10 μM), 10 μM compound, 24 hours, 42D^ENZR cells stably expressing BRN2-luciferase reporter; for inhibition at 30 µM: read-out: % BRN2 Inhibition (30 μM), 30 μM compound, 24 hours, 42D^ENZR cells stably expressing BRN2-luciferase reporter
T1 sequence (P20265 1-443): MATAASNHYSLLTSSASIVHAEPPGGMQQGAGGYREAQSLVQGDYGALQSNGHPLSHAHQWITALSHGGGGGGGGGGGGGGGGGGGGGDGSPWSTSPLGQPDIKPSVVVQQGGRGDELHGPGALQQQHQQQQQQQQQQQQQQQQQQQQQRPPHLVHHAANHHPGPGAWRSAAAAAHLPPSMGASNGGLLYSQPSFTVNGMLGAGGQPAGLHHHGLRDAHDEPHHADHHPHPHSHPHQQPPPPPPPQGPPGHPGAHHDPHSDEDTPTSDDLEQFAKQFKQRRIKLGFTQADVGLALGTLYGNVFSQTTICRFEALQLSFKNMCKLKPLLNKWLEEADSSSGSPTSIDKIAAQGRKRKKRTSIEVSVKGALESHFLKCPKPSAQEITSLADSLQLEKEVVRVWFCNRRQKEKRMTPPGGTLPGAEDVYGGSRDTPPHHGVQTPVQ
Excerpt: Decreased expression of luciferase protein is validated via western blot to confirm downregulation and avoid false positive molecules that inhibit luciferase protein activity and not BRN2-drive luciferase expression. Molecules are prioritized by their inhibition potency to measure direct interaction with BRN2 in Step 2.
In TABLES 1 and 2, when a single value is mentioned in columns Met Stab % and T½, it refers to compound's stability in MLM and when two values are given they represent HLM/MLM. There is a distinction in TABLES 1 and 2 difference between “Active” and “Specific” or “Specificity”. Compounds are first tested to quantify inhibition of BRN2 transcriptional activity in a luciferase assay to determine “Activity” at […] and 30 μM concentrations. […] Where data is not available “na” is inserted. Where data has yet to be calculated the notation “nc” is used.

Structure (SMILES) | Met Stab % (60 mins HLM/MLM) [1] | inhibition at 10 µM [2] | inhibition at 30 µM [2] | half-life at 1 µM [1]
Cn1c(-c2ccc(-c3cccc(C#N)c3)o2)nc2ccccc21 [VPC-18-63, 3-(5-(1-methyl-1H-benzo[d]imidazol-2-yl)furan-2-yl)benzonitrile] | 0% | 72% | 94% | –
FC(F)(F)c1ccc2cc(-c3csc(N4CCCC4)n3)oc2c1 [VPC-18-72, 2-(pyrrolidin-1-yl)-4-(6-(trifluoromethyl)benzofuran-2-yl)thiazole] | 8% | 45.9% | 62.4% | 18 min
FC(F)(F)c1ccc2cc(-c3csc(NC4CC4)n3)oc2c1 [VPC-18-73, N-cyclopropyl-4-(6-(trifluoromethyl)benzofuran-2-yl)thiazol-2-amine] | 2% | 78.8% | 95.7% | 11 min
Cc1c(-c2ccc(-c3ccccc3)o2)oc2ccccc12 [VPC-18-74, 3-methyl-2-(5-phenylfuran-2-yl)benzofuran] | 2% | 96.7% | 99% | 11 min
c1coc(-c2nc(-c3cc4ncccc4o3)cs2)c1 [VPC-18-75, 2-(2-(furan-2-yl)thiazol-4-yl)furo[3,2-b]pyridine] | 0% | 71.9% | 91.9% | –
FC(F)(F)c1ccc2nc(-c3csc(C4=CCOCC4)n3)oc2c1 [VPC-18-77] | 24% | 11.3% | 63.4% | 29 min
FC(F)(F)c1ccc2cc(-c3csc(N4CCOCC4)n3)oc2c1 [VPC-18-78, 4-(4-(6-(trifluoromethyl)benzofuran-2-yl)thiazol-2-yl)morpholine] | 25% | 43.6% | 79.6% | 30 min
N#Cc1ccc2cc(-c3csc(-c4ccco4)n3)oc2c1 [VPC-18-80] | 0% | 42% | 44% | –
Cn1c(-c2ccc(C3CCNCC3)o2)nc2ccc(C(F)(F)F)cc21 [VPC-18-82] | 100% | 11% | 50% | > 60 min
FC(F)(F)c1ccc2cc(-c3csc(NCC4CC4)n3)oc2c1 [VPC-18-86] | 5% | 32% | 92% | 13 min
FC(F)(F)c1ccc2nc(-c3ccc(-c4ccccc4)o3)[nH]c2c1 [VPC-18-87] | 37% | 85% | 87% | 40 min
N#Cc1c(-c2csc(-c3ccco3)n2)oc2ccccc12 [VPC-18-88, 2-(2-(furan-2-yl)thiazol-4-yl)benzofuran-3-carbonitrile] | 0% | 76% | 96% | 9 min
FC(F)(F)c1ccc2cc(-c3csc(C4CCNCC4)n3)oc2c1 [VPC-18-89, 2-(piperidin-4-yl)-4-(6-(trifluoromethyl)benzofuran-2-yl)thiazole] | 65% | 65% | 98% | > 60 min
Clc1ccc2cc(-c3csc(N4CC5CC4CO5)n3)oc2c1 (stereo not drawn) [VPC-18-91, 5-(4-(6-chlorobenzofuran-2-yl)thiazol-2-yl)-2-oxa-5-azabicyclo[2.2.1]heptane] | 2% | 70% | 96% | 11 min
Clc1ccc2nc(-c3ccc(-c4ccccc4)o3)[nH]c2c1 [VPC-18-92, 6-chloro-2-(5-phenylfuran-2-yl)-1H-benzo[d]imidazole] | 0% | 83% | 98.4% | 6 min
Fc1ccc(-c2nc(-c3nc4ccc(C(F)(F)F)cc4o3)cs2)o1 [VPC-18-93] | 26% | -9.9% | 30.2% | 34 min
Clc1ccc2cc(-c3csc(-c4ccn[nH]4)n3)oc2c1 [VPC-18-96, 4-(6-chlorobenzofuran-2-yl)-2-(1H-pyrazol-5-yl)thiazole] | 35% | 83.5% | 92.5% | 45 min
FC(F)(F)c1ccc2cc(-c3csc(-c4ncco4)n3)oc2c1 [VPC-18-98, 2-(4-(6-(trifluoromethyl)benzofuran-2-yl)thiazol-2-yl)oxazole] | 53% | 84% | 86% | > 60 min
Clc1ccc2cc(-c3csc(-c4ncco4)n3)oc2c1 [VPC-18-99] | 28% | 29.3% | 39.2% | 36 min
Fc1sc(-c2ccco2)nc1-c1cc2ccc(C(F)(F)F)cc2o1 [VPC-18-100] | 1% | 8.8% | 56.3% | 10 min
CN1CCN(c2ccc(-c3nc4ccc(C(F)(F)F)cc4n3C)o2)CC1 [VPC-18-102] | 0% | 22.6% | 55.5% | 7 min
FC(F)(F)n1c(-c2ccc(-c3ccccc3)o2)nc2ccccc21 [VPC-18-103] | 0% | 88.5% | 95.3% | 9 min
FC(F)(F)c1ccc2cc(-c3csc(-c4cocn4)n3)oc2c1 [VPC-18-106] | 7% | 90.6% | 90% | 16 min
Clc1ccc2nc(-c3csc(-c4ccco4)n3)oc2c1 [VPC-18-107] | 7% | 36.9% | 66.9% | 8 min
O=C1CCN(c2nc(-c3cc4ccc(Cl)cc4o3)cs2)C1 [VPC-18-109] | 4% | 81.7% | 91.5% | 13 min
Clc1ccc2cc(-c3cncc(-c4ccc[nH]4)n3)oc2c1 [VPC-18-130] | 1% | – | – | 9 min
Clc1ccc2cc(-c3cccc(-c4ccc[nH]4)c3)oc2c1 [VPC-18-153] | 2% | – | – | 11 min
Clc1ccc2cc(-c3csc(-c4nccs4)n3)oc2c1 [VPC-18-165] | 6% | – | – | 16 min
Fc1c(Cl)ccc2cc(-c3csc(-c4ccc[nH]4)n3)oc12 [VPC-18-166] | 1% | – | – | 10 min

— US20220106304A1, “Transcription Factor BRN2 Inhibitory Compounds as Therapeutics and Methods for Their Use” (The University of British Columbia, priority 2018, published 2022)
